Data published in US10208046B2, “Nitrogen-containing heterocyclic compound” (Takeda Pharmaceutical Company Limited, priority 2014, dated 2019).

Tests used:
[1] = tested on: IP1 production in hippocampi; experiment: Measurement of myo-inositol 1 phosphate (IP1) in rat hippocampi after oral administration; type: in vivo, male Long-Evans rats; details: rat hippocampus IP1/protein ratio, Vehicle group as 100%
Experimental: Measurement of Myo-Inositol 1 Phosphate (IP1)
Animals used were male Long-Evans rats. They were used after acclimation for at least 1 week. Test compounds were suspended in 0.5% (w/v) aqueous methylcellulose solution, and the suspension was orally administered to the rats. After a given time, lithium chloride was dissolved in saline and subcutaneously administered into the rats. After a given time, their bilateral hippocampi were isolated from the rats, and the wet weight thereof was measured. The isolated hippocampi were homogenized with HEPES buffer, followed by centrifugation. The IP1 and protein concentrations in the supernatant were measured by IP-One HTRF(R) assay kit (Cisbio Bioassays) and BCA protein assay kit (Thermo Scientific), respectively. The level of the IP1 production was expressed as the ratio of the concentration of IP1 to that of protein. The increase rate of the IP1 production was shown as a relative value when Vehicle administration group as 100%.

[2] = target: T1, human M1 receptor (hCHRM1) (Homo sapiens, UniProt P11229); experiment: Measurement of M1 receptor positive allosteric modulator (M1PAM) activity, calcium fluorescence in CHO-K1 cells; type: cell-based; details: for activity (%) at 10 μM: 10 μM test compound with acetylcholine at EC20, 100% = acetylcholine 1 μM, 0% = DMSO; for EC50: inflection point in the concentration-dependent curve, acetylcholine at EC20 (final 0.6-0.8 nM), CHO-K1 cells expressing human M1, Fluo-4, FLIPRtetra, read-out: IP value;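 for EC50: potency reported as IP value in nM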
T1 construct: expressed in transfected cells
T1 sequence (P11229 1-460): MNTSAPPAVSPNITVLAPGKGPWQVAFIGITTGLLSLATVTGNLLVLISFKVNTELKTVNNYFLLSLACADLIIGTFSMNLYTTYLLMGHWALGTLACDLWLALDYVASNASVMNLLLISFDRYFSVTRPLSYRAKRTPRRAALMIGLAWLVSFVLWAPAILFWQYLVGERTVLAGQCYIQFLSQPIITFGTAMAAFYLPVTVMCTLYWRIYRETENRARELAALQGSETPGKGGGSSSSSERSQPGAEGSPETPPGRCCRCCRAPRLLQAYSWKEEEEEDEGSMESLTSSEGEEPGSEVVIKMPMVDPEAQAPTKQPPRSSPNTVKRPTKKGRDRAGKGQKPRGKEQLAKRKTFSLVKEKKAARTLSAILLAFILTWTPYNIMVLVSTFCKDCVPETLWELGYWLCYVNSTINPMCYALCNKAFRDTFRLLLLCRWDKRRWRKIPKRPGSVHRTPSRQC
Experimental: Measurement of M1 Receptor Positive Allosteric Modulator (M1PAM) Activity
The activity of a test compound in the presence of acetylcholine at EC20 concentration (final concentration 0.6-0.8 nM), which affords an action corresponding to about 20% of the maximum activity, was measured as PAM activity. The method is as follows. CHO-K1 cells stably expressing a human M1 receptor (hCHRM1) were plated on a 384-well black clear bottom plate (BD Falcon) at 5,000 cells/well, and cultured in an incubator at 37° C., 5% CO2 for 1 day. The medium in the cell plate was removed, and assay buffer A containing calcium indicator (Recording medium (DOJINDO LABORATORIES), 0.1% BSA (Wako Pure Chemical Industries, Ltd.), 2.5 μg/mL Fluo-4 AM (DOJINDO LABORATORIES), 0.08% Pluronic F127 (DOJINDO LABORATORIES), 1.25 mM probenecid (DOJINDO LABORATORIES)) was added at 30 μL/well. The cells were left standing in the incubator at 37° C., 5% CO2 for 30 min, and further left standing at room temperature for 30 min. A test compound prepared by diluting with assay buffer B (HBSS (Invitrogen), 20 mM HEPES (Invitrogen), 0.1% BSA) containing 2.4-3.2 nM acetylcholine was added at 10 μL/well, and the fluorescence was measured by FLIPRtetra (Molecular Devices) for 1 min every 1 second. With the definition that the amount of change in the fluorescence on addition of acetylcholine (final concentration 1 μM) is 100% and that on addition of DMSO instead of a test compound is 0%, the activity (%) of the test compound was calculated, and the inflection point in the concentration-dependent curve of the test compound was calculated as IP values.

| Compound | increase rate (% of Vehicle) ([1]; 10 mg/kg oral) | activity (%) at 10 μM [2] [%] | EC50 [2] [nM] | increase rate (% of Vehicle) ([1]; 3 mg/kg oral) |
| --- | --- | --- | --- | --- |
| Cc1nn(C)cc1-c1ccc(CN2Cc3ncnc(OCC(C)(F)F)c3C2=O)cc1 [Example 22, 4-(2,2-difluoropropoxy)-6-(4-(1,3-dimethyl-1H-pyrazol-4-yl)benzyl)-6,7-dihydro-5H-pyrrolo[3,4-d]pyrimidin-5-one] | 71 % of Vehicle | 100 | 28 | – |
| CCn1cc(-c2ccc(CN3Cc4ncnc(OCC(C)(C)F)c4C3=O)cc2)cn1 [Example 45, 6-(4-(1-ethyl-1H-pyrazol-4-yl)benzyl)-4-(2-fluoro-2-methylpropoxy)-6,7-dihydro-5H-pyrrolo[3,4-d]pyrimidin-5-one] | – | 87 | 10 | – |
| Cc1nn(C)cc1-c1ccc(CN2Cc3ccnc(OCC(F)F)c3C2=O)c(F)c1 [Example 112, 4-(2,2-difluoroethoxy)-2-(4-(1,3-dimethyl-1H-pyrazol-4-yl)-2-fluorobenzyl)-1,2-dihydro-3H-pyrrolo[3,4-c]pyridin-3-one] | – | 101 | 41 | – |
| Cc1nn(C)cc1-c1ccc(CN2Cc3ncnc(OCC(F)F)c3C2=O)s1 [Example 34, 4-(2,2-difluoroethoxy)-6-((5-(1,3-dimethyl-1H-pyrazol-4-yl)-2-thienyl)methyl)-6,7-dihydro-5H-pyrrolo[3,4-d]pyrimidin-5-one] | – | 100 | 77 | – |
| O=C1c2c(ccnc2OCC(F)F)CN1Cc1ccc(-c2cnn(CC(F)F)c2)cc1 [Example 61, 4-(2,2-difluoroethoxy)-2-(4-(1-(2,2-difluoroethyl)-1H-pyrazol-4-yl)benzyl)-1,2-dihydro-3H-pyrrolo[3,4-c]pyridin-3-one] | – | 91 | 51 | – |
| CCn1cc(-c2ccc(CN3Cc4ncnc(OCC(C)(C)F)c4C3=O)c(F)c2)cn1 [Example 44, 6-(4-(1-ethyl-1H-pyrazol-4-yl)-2-fluorobenzyl)-4-(2-fluoro-2-methylpropoxy)-6,7-dihydro-5H-pyrrolo[3,4-d]pyrimidin-5-one] | – | 86 | 6.7 | – |
| Cn1cc(-c2ccc(CN3Cc4ccnc(OCC(C)(F)F)c4C3=O)cc2)nn1 [Example 107, 4-(2,2-difluoropropoxy)-2-(4-(1-methyl-1H-1,2,3-triazol-4-yl)benzyl)-1,2-dihydro-3H-pyrrolo[3,4-c]pyridin-3-one] | – | 92 | 72 | – |
| Cc1nn(C)cc1-c1ccc(CN2Cc3ncnc(OCC(C)(F)F)c3C2=O)c(F)c1 [Example 23, 4-(2,2-difluoropropoxy)-6-(4-(1,3-dimethyl-1H-pyrazol-4-yl)-2-fluorobenzyl)-6,7-dihydro-5H-pyrrolo[3,4-d]pyrimidin-5-one] | – | 94 | 6 | 27 % of Vehicle |
| Cn1cc(-c2ccc(CN3Cc4ccnc(OCCC(F)(F)F)c4C3=O)c(F)c2)nn1 [Example 16, 2-(2-fluoro-4-(1-methyl-1H-1,2,3-triazol-4-yl)benzyl)-4-(3,3,3-trifluoropropoxy)-1,2-dihydro-3H-pyrrolo[3,4-c]pyridin-3-one] | – | 111 | 85 | – |
| CCn1cc(-c2ccc(CN3Cc4ccnc(OCC(F)(F)CC)c4C3=O)cc2)cn1 [Example 77, 4-(2,2-difluorobutoxy)-2-(4-(1-ethyl-1H-pyrazol-4-yl)benzyl)-1,2-dihydro-3H-pyrrolo[3,4-c]pyridin-3-one] | – | 99 | 68 | – |
| O=C1c2c(ccnc2OCC(F)F)CN1Cc1ccc(-c2cnn(CC(F)(F)F)c2)cc1 [Example 65, 4-(2,2-difluoroethoxy)-2-(4-(1-(2,2,2-trifluoroethyl)-1H-pyrazol-4-yl)benzyl)-1,2-dihydro-3H-pyrrolo[3,4-c]pyridin-3-one] | – | 106 | 91 | – |
| Cc1nn(C)cc1-c1ccc(CN2Cc3ccnc(OCC(C)(F)F)c3C2=O)c(F)c1 [Example 108, 4-(2,2-difluoropropoxy)-2-(4-(1,3-dimethyl-1H-pyrazol-4-yl)-2-fluorobenzyl)-1,2-dihydro-3H-pyrrolo[3,4-c]pyridin-3-one] | – | 94 | 16 | – |
| Cc1nn(C)cc1-c1cc(F)c(CN2Cc3ncnc(OCC(F)F)c3C2=O)s1 [Example 15, 4-(2,2-difluoroethoxy)-6-((5-(1,3-dimethyl-1H-pyrazol-4-yl)-3-fluoro-2-thienyl)methyl)-6,7-dihydro-5H-pyrrolo[3,4-d]pyrimidin-5-one] | – | 100 | 16 | – |
| O=C1c2c(ccnc2OCC(F)F)CN1Cc1ccc(-c2cnn(CC(F)F)c2)cc1F [Example 56, 4-(2,2-difluoroethoxy)-2-(4-(1-(2,2-difluoroethyl)-1H-pyrazol-4-yl)-2-fluorobenzyl)-1,2-dihydro-3H-pyrrolo[3,4-c]pyridin-3-one] | – | 102 | 21 | – |
| CCC(F)(F)COc1nccc2c1C(=O)N(Cc1ccc(-c3cnn(CC(F)F)c3)cc1F)C2 [Example 59, 4-(2,2-difluorobutoxy)-2-(4-(1-(2,2-difluoroethyl)-1H-pyrazol-4-yl)-2-fluorobenzyl)-1,2-dihydro-3H-pyrrolo[3,4-c]pyridin-3-one] | – | 107 | 17 | – |
| CCC(F)(F)COc1nccc2c1C(=O)N(Cc1ccc(-c3cnn(CC(F)(F)F)c3)cc1)C2 [Example 73, 4-(2,2-difluorobutoxy)-2-(4-(1-(2,2,2-trifluoroethyl)-1H-pyrazol-4-yl)benzyl)-1,2-dihydro-3H-pyrrolo[3,4-c]pyridin-3-one] | – | 94 | 50 | – |
| Cn1cc(-c2ccc(CN3Cc4ccnc(OCC(F)(F)F)c4C3=O)c(F)c2)nn1 [Example 114, 2-(2-fluoro-4-(1-methyl-1H-1,2,3-triazol-4-yl)benzyl)-4-(2,2,2-trifluoroethoxy)-1,2-dihydro-3H-pyrrolo[3,4-c]pyridin-3-one] | – | 102 | 56 | – |
| Cn1cc2cc(-c3ccc(CN4Cc5ccnc(OCC(C)(F)F)c5C4=O)cc3)ccc2n1 [Example 14, 4-(2,2-difluoropropoxy)-2-(4-(2-methyl-2H-indazol-5-yl)benzyl)-1,2-dihydro-3H-pyrrolo[3,4-c]pyridin-3-one] | – | 88 | 51 | – |
